What all share (assay): Dundee kinase panel
Holding throughout (assay type): biochemical
Common to all, as to conditions: for remaining activity at 1 µM: read-out: residual activity

For one test, the target named is T1, EPH-B4 (Homo sapiens, UniProt P54760).
T1 construct: lines 1-140) and Reaction Biology
T1 sequence (P54760 16-987): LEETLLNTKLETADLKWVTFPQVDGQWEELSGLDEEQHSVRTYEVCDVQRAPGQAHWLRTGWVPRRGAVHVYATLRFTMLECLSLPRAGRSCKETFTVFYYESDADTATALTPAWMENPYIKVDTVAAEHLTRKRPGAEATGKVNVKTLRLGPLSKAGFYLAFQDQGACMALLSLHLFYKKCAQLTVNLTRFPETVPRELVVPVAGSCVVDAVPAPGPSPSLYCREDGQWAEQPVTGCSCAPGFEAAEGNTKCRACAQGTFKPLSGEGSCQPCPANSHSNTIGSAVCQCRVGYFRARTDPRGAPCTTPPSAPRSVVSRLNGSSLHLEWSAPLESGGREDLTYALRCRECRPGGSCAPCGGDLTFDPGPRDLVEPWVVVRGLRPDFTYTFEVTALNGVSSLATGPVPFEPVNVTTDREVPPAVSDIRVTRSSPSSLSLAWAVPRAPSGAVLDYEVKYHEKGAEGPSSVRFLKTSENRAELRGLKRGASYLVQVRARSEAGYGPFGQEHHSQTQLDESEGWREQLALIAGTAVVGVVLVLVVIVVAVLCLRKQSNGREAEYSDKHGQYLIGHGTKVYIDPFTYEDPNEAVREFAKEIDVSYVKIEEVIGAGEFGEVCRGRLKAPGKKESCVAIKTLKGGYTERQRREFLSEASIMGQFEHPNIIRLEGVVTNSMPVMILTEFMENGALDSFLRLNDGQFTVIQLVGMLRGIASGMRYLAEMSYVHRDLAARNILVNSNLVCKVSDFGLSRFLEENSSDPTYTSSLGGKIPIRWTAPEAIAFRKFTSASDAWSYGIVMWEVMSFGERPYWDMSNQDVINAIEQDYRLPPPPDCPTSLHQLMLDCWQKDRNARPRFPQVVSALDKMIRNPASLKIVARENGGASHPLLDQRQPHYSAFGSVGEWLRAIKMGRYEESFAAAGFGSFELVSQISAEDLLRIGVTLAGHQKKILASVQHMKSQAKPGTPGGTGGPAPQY
The protocol:
(§1) Compounds were screened at 1 μM. For key hits, pIC50 values were then determined by HTRF as above. […] Stability in mouse and human liver microsomes was determined by Cyprotex.

The next test concerns the target T2, IR (Homo sapiens, UniProt P06213).
T2 construct: lines 1-140) and Reaction Biology
The protocol: as §1

Another test deals with T3, IRAK4 (Homo sapiens, UniProt Q9NWZ3).
T3 construct: lines 1-140) and Reaction Biology
T3 sequence (Q9NWZ3 1-460): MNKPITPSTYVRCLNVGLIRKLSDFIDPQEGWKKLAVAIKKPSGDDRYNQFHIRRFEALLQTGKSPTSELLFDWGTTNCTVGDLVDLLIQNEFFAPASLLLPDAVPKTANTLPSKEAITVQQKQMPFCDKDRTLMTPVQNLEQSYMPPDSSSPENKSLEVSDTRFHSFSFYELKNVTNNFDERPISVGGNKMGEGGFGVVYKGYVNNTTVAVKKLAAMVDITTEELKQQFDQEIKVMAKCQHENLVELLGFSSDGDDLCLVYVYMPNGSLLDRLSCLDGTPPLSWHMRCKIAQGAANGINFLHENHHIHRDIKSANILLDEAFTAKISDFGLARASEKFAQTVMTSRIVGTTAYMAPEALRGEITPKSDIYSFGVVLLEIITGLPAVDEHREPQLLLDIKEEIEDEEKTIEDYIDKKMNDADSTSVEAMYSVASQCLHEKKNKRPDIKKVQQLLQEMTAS
The procedure:
as §1

The target of another test is T4, STK33 (Homo sapiens, UniProt Q9BYT3).
T4 construct: lines 1-140) and Reaction Biology
T4 sequence (Q9BYT3 whole entry): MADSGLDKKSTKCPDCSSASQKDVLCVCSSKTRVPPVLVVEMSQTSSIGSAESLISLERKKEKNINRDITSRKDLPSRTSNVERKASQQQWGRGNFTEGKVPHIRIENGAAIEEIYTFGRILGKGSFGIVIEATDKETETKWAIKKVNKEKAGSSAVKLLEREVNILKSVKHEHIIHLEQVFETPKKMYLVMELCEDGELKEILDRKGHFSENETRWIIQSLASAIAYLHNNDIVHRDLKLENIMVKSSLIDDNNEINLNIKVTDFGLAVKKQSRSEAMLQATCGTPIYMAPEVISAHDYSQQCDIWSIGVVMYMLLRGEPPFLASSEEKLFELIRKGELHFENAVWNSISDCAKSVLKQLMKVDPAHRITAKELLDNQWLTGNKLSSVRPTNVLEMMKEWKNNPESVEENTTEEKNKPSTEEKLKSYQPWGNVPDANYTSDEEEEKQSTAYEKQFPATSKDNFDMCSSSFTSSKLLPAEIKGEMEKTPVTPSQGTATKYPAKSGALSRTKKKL
The protocol:
as §1

The target of the next test is T5, MARK2 (Homo sapiens, UniProt Q7KZI7).
T5 construct: lines 1-140) and Reaction Biology
T5 sequence (Q7KZI7 whole entry): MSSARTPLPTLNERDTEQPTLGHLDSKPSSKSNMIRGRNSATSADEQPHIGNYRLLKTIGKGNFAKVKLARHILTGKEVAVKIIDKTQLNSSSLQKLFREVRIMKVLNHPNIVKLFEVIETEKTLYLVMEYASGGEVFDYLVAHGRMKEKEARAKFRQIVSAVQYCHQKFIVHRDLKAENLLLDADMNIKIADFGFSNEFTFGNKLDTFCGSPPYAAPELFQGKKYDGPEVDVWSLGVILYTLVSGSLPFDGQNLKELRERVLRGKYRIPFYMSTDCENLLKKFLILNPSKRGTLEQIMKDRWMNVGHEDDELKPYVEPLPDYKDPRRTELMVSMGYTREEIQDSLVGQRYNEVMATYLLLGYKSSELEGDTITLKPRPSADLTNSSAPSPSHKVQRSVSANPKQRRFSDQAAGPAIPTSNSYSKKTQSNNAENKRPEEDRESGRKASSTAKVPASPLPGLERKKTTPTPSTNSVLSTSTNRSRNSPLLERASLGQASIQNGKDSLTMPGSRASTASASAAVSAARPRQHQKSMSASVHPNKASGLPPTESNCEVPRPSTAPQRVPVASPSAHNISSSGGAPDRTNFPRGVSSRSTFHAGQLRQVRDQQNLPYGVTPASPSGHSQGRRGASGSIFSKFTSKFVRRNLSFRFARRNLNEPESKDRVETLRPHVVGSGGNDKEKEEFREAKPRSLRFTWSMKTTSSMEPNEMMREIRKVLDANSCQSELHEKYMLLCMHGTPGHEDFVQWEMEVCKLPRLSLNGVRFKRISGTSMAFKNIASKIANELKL
The procedure: as §1

A further test addresses T6, MARK4 (Homo sapiens, UniProt Q96L34).
T6 construct: lines 1-140) and Reaction Biology
T6 sequence (Q96L34 1-752): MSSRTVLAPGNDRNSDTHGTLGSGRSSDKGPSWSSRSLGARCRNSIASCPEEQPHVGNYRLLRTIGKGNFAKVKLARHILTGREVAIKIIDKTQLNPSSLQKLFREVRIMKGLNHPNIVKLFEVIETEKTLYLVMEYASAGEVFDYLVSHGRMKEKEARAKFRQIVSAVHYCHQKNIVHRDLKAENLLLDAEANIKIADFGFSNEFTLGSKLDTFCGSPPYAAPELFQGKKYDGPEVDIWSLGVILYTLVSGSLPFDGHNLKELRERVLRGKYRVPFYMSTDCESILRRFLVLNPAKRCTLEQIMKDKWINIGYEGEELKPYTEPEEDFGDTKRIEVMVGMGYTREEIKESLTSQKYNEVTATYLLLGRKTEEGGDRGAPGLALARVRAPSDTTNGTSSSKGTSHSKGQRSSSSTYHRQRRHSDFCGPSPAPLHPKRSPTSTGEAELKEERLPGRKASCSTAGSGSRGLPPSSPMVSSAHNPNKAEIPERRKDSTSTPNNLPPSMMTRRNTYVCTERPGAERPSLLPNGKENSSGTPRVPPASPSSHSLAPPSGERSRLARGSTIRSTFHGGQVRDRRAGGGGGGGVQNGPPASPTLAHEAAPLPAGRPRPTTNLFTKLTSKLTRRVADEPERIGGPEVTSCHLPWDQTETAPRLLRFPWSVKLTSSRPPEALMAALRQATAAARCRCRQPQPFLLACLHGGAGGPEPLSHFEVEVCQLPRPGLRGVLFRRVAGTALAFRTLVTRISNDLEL
The protocol: as §1

SMILES strings stand for the structures.

What is called residual activity is the signal under treatment as a percentage of the control signal.

T2 sequence (P06213 28-1382): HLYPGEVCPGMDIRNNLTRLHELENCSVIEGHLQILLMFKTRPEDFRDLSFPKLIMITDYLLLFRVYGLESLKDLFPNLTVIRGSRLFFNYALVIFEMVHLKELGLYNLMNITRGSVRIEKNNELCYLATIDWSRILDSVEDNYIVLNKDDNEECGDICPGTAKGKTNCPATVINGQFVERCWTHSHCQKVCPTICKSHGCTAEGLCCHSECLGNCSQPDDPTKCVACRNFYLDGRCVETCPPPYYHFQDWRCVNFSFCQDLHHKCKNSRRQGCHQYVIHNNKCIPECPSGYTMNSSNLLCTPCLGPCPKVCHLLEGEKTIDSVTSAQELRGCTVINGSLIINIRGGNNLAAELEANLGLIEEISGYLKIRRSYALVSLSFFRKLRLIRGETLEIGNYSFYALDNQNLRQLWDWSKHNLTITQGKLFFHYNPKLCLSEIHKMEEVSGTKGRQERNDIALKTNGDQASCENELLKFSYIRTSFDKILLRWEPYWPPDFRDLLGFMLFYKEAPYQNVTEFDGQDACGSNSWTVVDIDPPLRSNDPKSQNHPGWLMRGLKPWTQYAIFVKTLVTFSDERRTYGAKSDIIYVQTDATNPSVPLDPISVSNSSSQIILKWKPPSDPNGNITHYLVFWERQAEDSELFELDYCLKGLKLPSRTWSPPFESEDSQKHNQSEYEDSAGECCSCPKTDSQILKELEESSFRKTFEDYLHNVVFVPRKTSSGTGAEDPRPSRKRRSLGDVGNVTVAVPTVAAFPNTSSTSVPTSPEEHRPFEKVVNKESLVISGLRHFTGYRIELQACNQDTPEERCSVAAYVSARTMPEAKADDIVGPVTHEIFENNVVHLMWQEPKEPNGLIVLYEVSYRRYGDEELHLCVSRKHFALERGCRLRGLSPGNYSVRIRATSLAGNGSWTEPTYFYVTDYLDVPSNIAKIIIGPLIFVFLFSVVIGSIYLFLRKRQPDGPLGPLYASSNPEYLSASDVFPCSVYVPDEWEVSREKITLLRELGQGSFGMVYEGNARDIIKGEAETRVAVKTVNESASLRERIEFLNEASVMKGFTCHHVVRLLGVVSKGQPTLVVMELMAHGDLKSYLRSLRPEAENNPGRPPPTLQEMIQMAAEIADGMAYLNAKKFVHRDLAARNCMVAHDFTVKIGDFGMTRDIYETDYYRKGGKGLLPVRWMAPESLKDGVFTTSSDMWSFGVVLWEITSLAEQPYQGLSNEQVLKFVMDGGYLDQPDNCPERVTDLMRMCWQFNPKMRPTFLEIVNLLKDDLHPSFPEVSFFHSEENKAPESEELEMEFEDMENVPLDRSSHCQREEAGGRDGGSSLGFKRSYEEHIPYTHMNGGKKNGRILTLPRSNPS

With `Oc1ncnc2c1c(-c1ccccc1)cn2-c1ccccc1` [F1386-0303, 5,7-diphenyl-7H-pyrrolo[2,3-d]pyrimidin-4-ol], the remaining activity at 1 µM on EPH-B4 stood at 102%; on IR, 118%; at IRAK4, 103%; at STK33 it was 99%; at MARK2 it was 98%; on MARK4 it was 96%.
Take `O=C1Cc2c([nH]c3ccc(Br)cc23)-c2ccccc2N1` [Kenpaullone]: the remaining activity at 1 µM at EPH-B4 was determined as 85%; at IR it was 43%; at IRAK4 it was 65%; on STK33, 92%; at MARK2 it was 35%; at MARK4 it was 39%.
Regarding `COCCOc1ccc(-c2cn(-c3ccccc3)c3nc[nH]c(=O)c23)cc1` [DMX-5804, 5-[4-(2-methoxy-ethoxy)-phenyl]-7-phenyl-3,7-dihydro-pyrrolo[2,3-d]pyrimidin-4-one], the remaining activity at 1 µM amounted to 100% at EPH-B4; 115% on IR; 97% on IRAK4; 97% on STK33; 98% on MARK2; 99% on MARK4.
For `O=C1Nc2ccc(I)cc2/C1=C/c1cc(Br)c(O)c(Br)c1` [GW5074], the remaining activity at 1 µM at EPH-B4 stood at 94%; on IR, 26%; on IRAK4, 78%; on STK33, 71%; on MARK2, 49%; on MARK4, 50%.
As to `Nc1ncc(C(=O)NC2CN(C(=O)C3CC3)C2)c2ccc(-c3cccc(F)c3)nc12` [GNE-495], the residual activity is 106% on EPH-B4 (1 μM); 107% at IR (1 μM); 75% on IRAK4 (1 μM); 94% at STK33 (1 μM); 42% at MARK2 (1 μM); 51% at MARK4 (1 μM).

(Values after publication PMC6458995, “MAP4K4 Inhibition Promotes Survival of Human Stem Cell-Derived Cardiomyocytes and Reduces Infarct Size In Vivo” (Cell Stem Cell, 2019).)
